Measurements as given in the NIST ThermoML archive (doi:10.1021/je7006742).

Key:
[1] = 101 kPa, Liquid
[2] = xn = mol fraction of the nth substance listed; conditions: 101 kPa, Liquid

C=CC#N [acrylonitrile]
[1]
Conditions | mass density [kg/m3] | viscosity [mPa·s]
298.15 K | 794 | 0.344
308.15 K | 788 | 0.307
318.15 K | 783 | 0.284

C=CC#N [acrylonitrile] + O=CC=Cc1ccccc1
[2], x1 = 1
Conditions | mass density [kg/m3] | viscosity [mPa·s]
298.15 K | 794 | 0.344
308.15 K | 788 | 0.307
318.15 K | 783 | 0.284

O=CC=Cc1ccccc1 [(E)-3-phenyl-2-propanal]
[1]
Conditions | mass density [kg/m3] | viscosity [mPa·s]
298.15 K | 1046 | 3.478
308.15 K | 1039 | 2.688
318.15 K | 1032 | 2.296

O=Cc1ccccc1 [benzaldehyde] + C=CC#N
[2], x2 = 0
Conditions | mass density [kg/m3] | viscosity [mPa·s]
298.15 K | 1041 | 1.399
308.15 K | 1034 | 1.224
318.15 K | 1027 | 1.12

O=CC=Cc1ccccc1 [(E)-3-phenyl-2-propanal] + C=CC#N
[2]
Conditions | mass density, 298.15 K [kg/m3] | mass density, 308.15 K [kg/m3] | mass density, 318.15 K [kg/m3] | speed of sound, 298.15 K [m/s] | viscosity, 298.15 K [mPa·s] | viscosity, 308.15 K [mPa·s] | viscosity, 318.15 K [mPa·s]
x2 = 0 | 1046 | 1039 | 1032 | – | 3.478 | 2.688 | 2.296
x2 = 0.2168 | 1017 | 1011 | – | – | 2.014 | 1.698 | –
x2 = 0.217 | – | – | 1009 | 1487.6 | – | – | 1.456
x2 = 0.3837 | 990 | 985 | – | – | 1.4 | 1.215 | –
x2 = 0.384 | – | – | 983 | 1433.3 | – | – | 1.078
x2 = 0.516 | – | – | 957 | 1403 | – | – | 0.83
x2 = 0.5163 | 964 | 958 | – | – | 1.02 | 0.906 | –
x2 = 0.624 | – | – | 930 | 1372 | – | – | 0.684
x2 = 0.6241 | 937 | 931 | – | – | 0.795 | 0.724 | –
x2 = 0.7135 | 911 | 905 | – | – | 0.646 | 0.603 | –
x2 = 0.714 | – | – | 904 | 1330.3 | – | – | 0.581
x2 = 0.7889 | 886 | 881 | – | – | 0.56 | 0.519 | –
x2 = 0.789 | – | – | 878 | 1288.7 | – | – | 0.457
x2 = 0.853 | – | – | 854 | 1251.2 | – | – | 0.43
x2 = 0.8532 | 862 | 856 | – | – | 0.474 | 0.441 | –
x2 = 0.9088 | 839 | 833 | – | – | 0.423 | 0.405 | –
x2 = 0.909 | – | – | 830 | 1224.1 | – | – | 0.394
x2 = 0.957 | – | – | 805 | 1186.8 | – | – | 0.348
x2 = 0.9573 | 817 | 810 | – | – | 0.388 | 0.359 | –

C=CC#N [acrylonitrile] + O=Cc1ccccc1
[2]
Conditions | mass density, 298.15 K [kg/m3] | mass density, 308.15 K [kg/m3] | mass density, 318.15 K [kg/m3] | speed of sound, 298.15 K [m/s] | viscosity, 298.15 K [mPa·s] | viscosity, 308.15 K [mPa·s] | viscosity, 318.15 K [mPa·s]
x1 = 0.182 | 1022 | 1011 | 1005 | 1412.7 | 1.224 | 1.071 | 0.973
x1 = 0.333 | 995 | 985 | 980 | 1394.7 | 1.079 | 0.941 | 0.851
x1 = 0.462 | 969 | 959 | 954 | 1353.1 | 0.958 | 0.827 | 0.746
x1 = 0.571 | 940 | 932 | 928 | 1322.4 | 0.842 | 0.724 | 0.653
x1 = 0.667 | 914 | 906 | 902 | 1292.8 | 0.74 | 0.63 | 0.571
x1 = 0.75 | 887 | 880 | 877 | 1259.4 | 0.649 | 0.55 | 0.5
x1 = 0.824 | 863 | 856 | 854 | 1237.6 | 0.565 | 0.478 | 0.436
x1 = 0.889 | 839 | 833 | 830 | 1212 | 0.484 | 0.416 | 0.379
x1 = 0.947 | 816 | 810 | 806 | 1186.8 | 0.41 | 0.358 | 0.328
x1 = 1 | 794 | 788 | 783 | – | 0.344 | 0.307 | 0.284

COc1ccc(C=O)cc1 [4-methoxybenzaldehyde]
[1]
Conditions | mass density [kg/m3] | viscosity [mPa·s]
298.15 K | 1120 | 3.706
308.15 K | 1112 | 2.83
318.15 K | 1105 | 2.232

C=CC#N [acrylonitrile] + COc1ccc(C=O)cc1
[2], x1 = 1
Conditions | mass density [kg/m3] | viscosity [mPa·s]
298.15 K | 794 | 0.344
308.15 K | 788 | 0.307
318.15 K | 783 | 0.284

O=Cc1ccccc1 [benzaldehyde]
[1]
Conditions | mass density [kg/m3] | viscosity [mPa·s]
298.15 K | 1041 | 1.399
308.15 K | 1034 | 1.224
318.15 K | 1027 | 1.12

COc1ccc(C=O)cc1 [4-methoxybenzaldehyde] + C=CC#N
[2]
Conditions | mass density, 298.15 K [kg/m3] | mass density, 308.15 K [kg/m3] | mass density, 318.15 K [kg/m3] | speed of sound, 298.15 K [m/s] | viscosity, 298.15 K [mPa·s] | viscosity, 308.15 K [mPa·s] | viscosity, 318.15 K [mPa·s]
x2 = 0 | 1120 | 1112 | 1105 | – | 3.706 | 2.83 | 2.232
x2 = 0.222 | 1079 | 1072 | 1066 | 1446.6 | 2.035 | 1.828 | 1.53
x2 = 0.391 | 1040 | 1034 | 1029 | 1384.8 | 1.341 | 1.226 | 1.095
x2 = 0.524 | 1003 | 997 | 992 | 1345.8 | 0.865 | 0.852 | 0.798
x2 = 0.631 | 968 | 962 | 957 | 1310 | 0.742 | 0.678 | 0.644
x2 = 0.72 | 934 | 930 | 924 | 1277.6 | 0.55 | 0.538 | 0.515
x2 = 0.794 | 903 | 898 | 893 | 1244.6 | 0.545 | 0.469 | 0.443
x2 = 0.857 | 873 | 868 | 864 | 1217.8 | 0.415 | 0.404 | 0.39
x2 = 0.911 | 845 | 840 | 835 | 1201.6 | 0.435 | 0.369 | 0.37
x2 = 0.958 | 819 | 813 | 808 | – | 0.379 | 0.333 | 0.322
x2 = 0.959 | – | – | – | 1186.8 | – | – | –
